From patent US20260001928A1 (CORTERIA PHARMACEUTICALS, priority 2022, published 2026)
*1 amine or outer side, *2 acyl side, *3 side chain or, on linkers, in order; H or OH if unused. Where a SMILES comes first, the peptide text is derived from it. Side-chain parts run from the residue outwards. The star is where a group is joined. C18 diacid = O=C(O)CCCCCCCCCCCCCCCCC(=O)*; γGlu = O=C(O)[C@H](CCC(=O)[*:2])N[*:1]; AEEA = NCCOCCOCC(=O)O

Columns and labels:
[1] = In vitro subcutaneous tissue supernatant (SCts) stability and metabolite identification, rat; format: in vitro ADME; conditions: in vitro soft spot identification, rat SCts
[2] = In vivo metabolite identification on rat plasma samples after SC administration; conditions: rat plasma after SC administration at 1 mg/kg
Description: Software aided in vitro metabolite identification on SCts stability samples was performed using either Metabolite Pilot (Sciex) or Biopharma Finder (Thermo). In addition, metabolite identification using Metabolite Pilot was performed on plasma samples of Comp Y following SC administration to rat at 1 mg/kg.

- major metabolic soft spot, in vitro [1]: N-terminus
- major metabolic soft spot, in vivo [2]: N-terminus
SMILES: CC[C@H](C)[C@H](N)C(=O)N[C@H](C(=O)N[C@@H](CC(C)C)C(=O)N[C@@H](CO)C(=O)N[C@@H](CC(C)C)C(=O)N[C@@H](CC(=O)O)C(=O)N[C@H](C(=O)N1CCC[C@H]1C(=O)N[C@H](C(=O)N[C@@H](CCCCN)C(=O)N[C@@H](CC(C)C)C(=O)N[C@@H](CCCCNC(=O)COCCOCCNC(=O)COCCOCCNC(=O)CC[C@H](NC(=O)CCCCCCCCCCCCCCCCC(=O)O)C(=O)O)C(=O)N[C@@H](CCCCN)C(=O)N[C@H](C(=O)N[C@@H](CC(C)C)C(=O)N[C@@H](CC(C)C)C(=O)N[C@@H](CCC(=O)O)C(=O)N[C@@H](CCC(N)=O)C(=O)N[C@@H](CCC(=O)O)C(=O)N[C@@H](CCCCN)C(=O)N[C@@H](CCC(N)=O)C(=O)N[C@@H](CCCCN)C(=O)N[C@@H](CCCCN)C(=O)N[C@@H](CCC(N)=O)C(=O)N[C@@H](CCCNC(=N)N)C(=O)N[C@@H](CCC(=O)O)C(=O)N[C@@H](CCC(N)=O)C(=O)N[C@@H](C)C(=O)N[C@@H](CCC(=O)O)C(=O)N[C@H](C(=O)N[C@@H](CC(N)=O)C(=O)N[C@@H](CCCCN)C(=O)N[C@@H](CCC(N)=O)C(=O)N[C@H](C(=O)N[C@@H](CC(C)C)C(=O)N[C@@H](C)C(=O)N[C@@H](CCC(N)=O)C(=O)N[C@H](C(N)=O)C(C)C)[C@@H](C)CC)[C@@H](C)O)[C@@H](C)CC)[C@@H](C)CC)C(C)C)C(C)C [SEQ ID No. 149, reference compound] (H-IVLSLDVPIKLK([AEEA-AEEA-γGlu-C18 diacid])KILLEQEKQKKQREQAETNKQILAQV-NH2)
